Data set [1] concerns Candida albicans. The experiment in a line: Antifungal activity against Candida albicans NCPF 90028 assessed as fungal growth inhibition incubated for 24 to 48 hrs by CLSI protocol based agar microdilution method. The data set is classed as functional. To be noted: time 24-48 hrs.
Data set [2] deals with Cryptococcus neoformans. In words: Antifungal activity against Cryptococcus neoformans ATCC 90113 assessed as fungal growth inhibition incubated for 24 to 48 hrs by CLSI protocol based agar microdilution method. To be noted: time 24-48 hrs. Type of data set: functional.
Data set [3] deals with Nannizzia gypsea. In words: Antifungal activity against Microsporum gypseum assessed as fungal growth inhibition incubated for 4 days by CLSI protocol based agar microdilution method. Type of data set: functional. To be noted: 96 h, time 4 day.
Data set [4] has as its system Staphylococcus aureus. The experiment in a line: Antibacterial activity against Staphylococcus aureus ATCC 25923 assessed as bacterial growth inhibition incubated for 18 hrs by CLSI protocol based agar microdilution method. The data set is classed as functional.
Data set [5] relates to Staphylococcus aureus. The experiment in a line: Antibacterial activity against methicillin-resistant Staphylococcus aureus assessed as bacterial growth inhibition incubated for 18 hrs by CLSI protocol based agar microdilution method. Type of data set: functional.
Data set [6] has as its system Vero. In words: Cytotoxicity against African green monkey Vero cells by colorimetric assay. Type of data set: cell-based. To be noted: Chlorocebus sabaeus.
In data set [7] the test system is Staphylococcus aureus. The experiment in a line: Antibacterial activity against methicillin-resistant Staphylococcus aureus assessed as bacterial growth inhibition by CLSI protocol based assay. The data set is classed as functional.
For data set [8], the system named is Cryptococcus neoformans. In words: Antifungal activity against Cryptococcus neoformans ATCC 90113 assessed as fungal growth inhibition by CLSI protocol based assay. Type of data set: functional.
For data set [9], the system named is Nannizzia gypsea. The experiment in a line: Antifungal activity against Microsporum gypseum assessed as fungal growth inhibition by CLSI protocol based assay. The data set is classed as functional.
Data set [10] deals with Candida albicans. In words: Antifungal activity against Candida albicans NCPF 90028 assessed as fungal growth inhibition at 50 ug/ml by CLSI protocol based assay. The data set is classed as functional, organism-based. To be noted: dose 50.0 µg/ml.
Data set [11] has as its system Nannizzia gypsea. In words: Antifungal activity against Microsporum gypseum assessed as fungal growth inhibition at 50 ug/ml by CLSI protocol based assay. Type of data set: functional, organism-based. To be noted: dose 50.0 µg/ml.
Data set [12] has as its system Vero. The experiment in a line: Cytotoxicity against African green monkey Vero cells at 50 ug/ml incubated for 24 hrs by MTT assay. The data set is classed as cell-based. To be noted: chlorocebus sabaeus, dose 50 µg/ml. (In general: Tetrazolium assays rely on reduction of a dye to a coloured formazan, in cell work by metabolically active cells.)
The test system of data set [13] is Staphylococcus aureus. The experiment in a line: Antibacterial activity against Staphylococcus aureus ATCC 25923 assessed as bacterial growth inhibition by CLSI protocol based assay. Type of data set: functional.
Data set [14] has as its system Staphylococcus aureus. The experiment in a line: Antibacterial activity against methicillin-resistant Staphylococcus aureus assessed as bacterial growth inhibition at 50 ug/ml by CLSI protocol based assay. To be noted: dose 50.0 µg/ml. Type of data set: functional, organism-based.
The subject of data set [15] is Vero. The experiment in a line: Cytotoxicity against African green monkey Vero cells incubated for 24 hrs by MTT assay. To be noted: Chlorocebus sabaeus. The data set is classed as cell-based.

Results on nine molecules are retold here after ChEMBL document CHEMBL4811255, “Antibacterial and Antifungal Polyketides from the Fungus Aspergillus unguis PSU-MF16” (J Nat Prod, 2021).

As a reminder, the MIC is the lowest concentration that inhibits growth of the organism. What is called IC50 is the point on the concentration scale where inhibition reaches its midpoint.

Values after ≈ are worked out from the molar mass of the structure shown. Active and inactive are the calls of the source. The rule behind the calls is not given here.

Take `C[C@@H]1[C@H](O)[C@@H](C)/C=C/C=C/C=C/C=C/C=C/C=C/C=C/[C@H](O[C@@H]2O[C@H](C)[C@@H](O)[C@H](N)[C@@H]2O)C[C@@H]2O[C@](O)(C[C@@H](O)C[C@@H](O)[C@H](O)CC[C@@H](O)C[C@@H](O)CC(=O)O[C@H]1C)C[C@H](O)[C@H]2C(=O)O` [AMPHOTERICIN B]: the values for the MIC in the data set with Candida albicans [1] and in the data set on Cryptococcus neoformans [2] were 0.5 µg/mL (≈ 0.541 µM) and 2 µg/mL (≈ 2.16 µM), respectively.

On to `Clc1ccccc1C(c1ccccc1)(c1ccccc1)n1ccnc1` [CLOTRIMAZOLE], for which the minimal inhibitory concentration (MIC) in the data set on Nannizzia gypsea [3] came to 2 µg/mL (≈ 5.8 µM).

As to `C=C(c1cc(O)c(C)c2c1Oc1cc(O)cc(C)c1C(=O)O2)[C@H](C)O`, the MIC in the data set on Cryptococcus neoformans [2] and in the data set on Nannizzia gypsea [3] was 0.5 µg/mL (≈ 1.46 µM) each time.

In the case of `C/C=C(\C)c1cc(O)c(C)c2c1C(=O)Oc1c(C)c(O)c(C(=O)O)c(/C(C)=C/C)c1O2`, the minimal inhibitory concentration (MIC) in the data set on Staphylococcus aureus [4] is 0.25 µg/mL (≈ 0.589 µM); with Staphylococcus aureus [5], 0.5 µg/mL (≈ 1.18 µM); with Candida albicans [1], 0.25 µg/mL (≈ 0.589 µM); in the data set with Cryptococcus neoformans [2], 0.25 µg/mL (≈ 0.589 µM); in the data set with Nannizzia gypsea [3], 1 µg/mL (≈ 2.36 µM); in the data set with Staphylococcus aureus [7], 64 µg/mL (≈ 151 µM). Moreover, the values for the MIC in the data set with Cryptococcus neoformans [8] and with Nannizzia gypsea [9] were 64 µg/mL (≈ 151 µM) and 200 µg/mL (≈ 471 µM), respectively. In the data set on Vero [6], this molecule yielded a 50% inhibitory concentration (IC50) of 4.6 µg/mL (≈ 10.8 µM). Moreover, the outcome in the data set on Candida albicans [10] and in the data set with Nannizzia gypsea [11] was inactive. Further, the Activity result in the data set with Vero [12] is on record as “Non-Toxic”.

Regarding `C/C=C(\C)c1cc(O)c(C)c2c1Oc1cc(O)cc(C)c1C(=O)O2`, the MIC in the data set with Cryptococcus neoformans [2] came to 0.25 µg/mL (≈ 0.766 µM); in the data set on Nannizzia gypsea [3] it was 1 µg/mL (≈ 3.06 µM); with Staphylococcus aureus [13], 128 µg/mL (≈ 392 µM); in the data set with Cryptococcus neoformans [8], 200 µg/mL (≈ 613 µM). Moreover, the outcome in the data set on Staphylococcus aureus [14], in the data set with Candida albicans [10] and in the data set on Nannizzia gypsea [11] was inactive. For the same molecule, the Activity result with Vero [12] is recorded as “Non-Toxic”.

Turning to `C/C=C(\C)c1cc(O)c(C)c2c1Oc1c(C)c(O)cc(/C(C)=C/C)c1C(=O)O2`, the minimal inhibitory concentration (MIC) with Staphylococcus aureus [4] was 0.25 µg/mL (≈ 0.657 µM); in the data set on Staphylococcus aureus [5], 0.5 µg/mL (≈ 1.31 µM); with Candida albicans [1], 0.25 µg/mL (≈ 0.657 µM); in the data set on Cryptococcus neoformans [2], 0.25 µg/mL (≈ 0.657 µM); in the data set on Nannizzia gypsea [3] it was 1 µg/mL (≈ 2.63 µM); in the data set on Staphylococcus aureus [13], 2 µg/mL (≈ 5.26 µM). Further, the MIC with Staphylococcus aureus [7] and in the data set on Cryptococcus neoformans [8] was 1 µg/mL (≈ 2.63 µM) in each case. In the data set with Vero [15], this molecule displayed an IC50 of 17 µg/mL (≈ 44.7 µM). The result in the data set with Candida albicans [10] was inactive.

For the molecule `C/C=C(\C)c1cc(O)c(C)c(O)c1C(=O)Oc1cc(/C(C)=C/C)c(C(=O)O)c(O)c1C` [AGONODEPSIDE B], the MIC came to 0.5 µg/mL (≈ 1.17 µM) with Staphylococcus aureus [5], 0.5 µg/mL (≈ 1.17 µM) in the data set with Cryptococcus neoformans [2], 0.5 µg/mL (≈ 1.17 µM) in the data set on Nannizzia gypsea [3] and 16 µg/mL (≈ 37.5 µM) in the data set on Staphylococcus aureus [7].

In the data set on Vero [6], `Cc1c2ccncc2c(C)c2c1[nH]c1ccccc12` [ELLIPTECINE] displayed a half-inhibitory concentration (IC50) of 4 µg/mL (≈ 16.2 µM).

Regarding `C/C=C(\C)c1cc(O)c(C)c(O)c1C(=O)Oc1cc2c(c(O)c1C)C(=O)O[C@@]2(C)CC`, the minimum inhibitory concentration (MIC) in the data set on Staphylococcus aureus [4] stood at 0.25 µg/mL (≈ 0.586 µM); in the data set on Staphylococcus aureus [5] it was 0.5 µg/mL (≈ 1.17 µM); in the data set with Candida albicans [1], 0.25 µg/mL (≈ 0.586 µM); in the data set on Cryptococcus neoformans [2], 0.25 µg/mL (≈ 0.586 µM); in the data set with Nannizzia gypsea [3], 1 µg/mL (≈ 2.34 µM); in the data set with Staphylococcus aureus [13], 200 µg/mL (≈ 469 µM). Also, the minimal inhibitory concentration (MIC) in the data set on Staphylococcus aureus [7] and with Cryptococcus neoformans [8] was 200 µg/mL (≈ 469 µM) in each case. Further, the half-inhibitory concentration (IC50) in the data set with Vero [6] turned out to be 4.6 µg/mL (≈ 10.8 µM); with Vero [15] it was 45 µg/mL (≈ 106 µM). Also, the result with Candida albicans [10] and with Nannizzia gypsea [11] was inactive.
